# Measured values taken from US10654845B2, “2-(het)aryl-substituted fused bicyclic heterocycle derivatives as pesticides” (BAYER CROPSCIENCE AKTIENGESELLSCHAFT, priority 2015, dated 2020).
# Like-named read-outs stand apart in the source and are kept apart here.
# Assays:
# Phaedon cochleariae = Phaedon cochleariae spray test; assay type: in vivo; settings: for pest or weed control at 500 g/ha: Phaedon cochleariae, 168 h, read-out: efficacy in %
# Method: Phaedon cochleariae-Spray Test
# (§1) Solvent: 78.0 parts by weight of acetone
# (§2) • 1.5 parts by weight of dimethylformamide Emulsifier: alkylaryl polyglycol ether
# (§3) To produce a suitable preparation of active compound, 1 part by weight of active compound is dissolved using the stated parts by weight of solvent and made up with water containing an emulsifier concentration of 1000 ppm until the desired concentration is attained. To produce further test concentrations, the preparation is diluted with emulsifier-containing water.
# After 7 days, the efficacy in % is determined. 100% means that all the beetle larvae have been killed; 0% means that no beetle larvae have been killed.
# [1] = log P by HPLC on reversed-phase column (C18), EEC Directive 79/831 Annex V.A8
# Description: Called log P (HCOOH) in the table.
# Called log P (neutral) in the table.
# Myzus persicae = Myzus persicae spray test (Chinese cabbage leaf discs); assay type: in vivo
# Method: Myzus persicae Spray Test
# Solvent: 78 parts by weight of acetone
# as §2, §3
# Discs of Chinese cabbage leaves (Brassica pekinensis) infested by all stages of the green peach aphid (Myzus persicae) are sprayed with an active compound preparation of the desired concentration.
# After 6 days, the efficacy in % is determined. 100% means that all the aphids have been killed; 0% means that no aphids have been killed.
# Tetranychus urticae = Tetranychus urticae spray test, OP-resistant; assay type: in vivo; settings: after 6 days, spider mites killed
# Method: Tetranychus urticae-Spray Test, OP-Resistant
# as §1, §2, §3
# Discs of bean leaves (Phaseolus vulgaris) infested with all stages of the greenhouse red spider mite (Tetranychus urticae) are sprayed with an active compound preparation of the desired concentration.
# After 6 days, the efficacy in % is determined. 100% means that all the spider mites have been killed; 0% means that no spider mites have been killed.
# [2] = 500 g/ha, after 7 days, beetle larvae killed
# [3] = 500 g/ha, after 6 days, aphids killed
# [4] = LC-MS acidic range, pH 2.7 (HCOOH), C18, 55° C.
# [5] = LC-MS neutral range, pH 7.8, C18, 55° C.
# [6] = reversed-phase HPLC column (C18), pH 2.7, logP-acidic, LC-MS acidic range, pH 2.7 (HCOOH), C18, 55° C.
# [7] = reversed-phase HPLC column (C18), pH 7.8, log P (neutral), preparation examples, neutral range, pH 7.8
# [8] = reversed-phase HPLC column (C18), pH 7.8, logP-neutral, LC-MS neutral range, pH 7.8, C18, 55° C.
# [9] = Myzus persicae, foliar, 144 h, 500 g/ha, after 6 days, aphids killed, read-out: efficacy in %
# [10] = 100 g/ha, after 7 days, beetle larvae killed
# [11] = 100 g/ha, after 6 days, aphids killed
logP-acidic ([1]; pH 2.7),Structure (SMILES),efficacy in % (Phaedon cochleariae; [2]) [%],logP-neutral ([1]; pH 7.8),efficacy in % (Myzus persicae; [3]) [%],also measured
2.74,CCS(=O)(=O)c1ccc(NC(=O)C(F)(F)F)nc1-c1nc2cc(C(F)(F)F)ncc2n1C [Example 3],100,1.73,100,
,CCS(=O)(=O)c1ccc(NC(=O)C(F)(F)C(F)(F)F)nc1-c1nc2cc(C(F)(F)F)ncc2n1C [Example 4],100,,100,"logP-acidic [1, 4]: 3.17; logP-neutral [1, 5]: 1.94"
,"CCS(=O)(=O)c1ccc(NC(=O)C(C)C)nc1-c1nc2cc(C(F)(F)F)ncc2n1C [Example 16, N-{5-(Ethylsulphonyl)-6-[3-methyl-6-(trifluoromethyl)-3H-imidazo[4,5-c]pyridin-2-yl]pyridin-2-yl}-2-methylpropanamide]",,,,"pest or weed control at 500 g/ha (Phaedon cochleariae; [2]): 100%; chromatographic logP [1, 6]: 2.63; chromatographic logP [1, 7]: 2.61; chromatographic logP [1, 8]: 2.61; pest or weed control at 500 g/ha (Myzus persicae; [9]): 100%"
2.98,CCS(=O)(=O)c1ccc(NC(=O)c2ccccc2)nc1-c1nc2cc(C(F)(F)F)ncc2n1C [Example 20],83,,90,
,"CCS(=O)(=O)c1ccc(C(=O)NC)nc1-c1nc2cc(C(F)(F)F)ncc2n1C [Example 31, 5-(Ethylsulphonyl)-N-methyl-6-[3-methyl-6-(trifluoromethyl)-3H-imidazo[4,5-c]pyridin-2-yl]pyridine-2-carboxamide]",,,,"pest or weed control at 500 g/ha (Phaedon cochleariae; [2]): 100%; efficacy in % (Tetranychus urticae; 500 g/ha): 100%; chromatographic logP [1, 6]: 2.01; chromatographic logP [1, 7]: 1.96; chromatographic logP [1, 8]: 1.96; pest or weed control at 500 g/ha (Myzus persicae; [9]): 100%"
,"CCS(=O)(=O)c1ccc(C(=S)NC)nc1-c1nc2cc(C(F)(F)F)ncc2n1C [Example 34, 5-(Ethylsulphonyl)-N-methyl-6-[3-methyl-6-(trifluoromethyl)-3H-imidazo[4,5-c]pyridin-2-yl]pyridine-2-carbothioamide]",,,,"efficacy in % (Tetranychus urticae; 500 g/ha): 100%; chromatographic logP [1, 6]: 2.8; chromatographic logP [1, 7]: 2.76; chromatographic logP [1, 8]: 2.76; pest or weed control at 500 g/ha (Myzus persicae; [9]): 90%"
,"CC[S+]([O-])c1ccc(S(=O)(=O)CC)c(-c2nc3cc(C(F)(F)F)ncc3n2C)n1 (centres unmarked) [Example 37, 2-[6-(Ethylsulphinyl)-3-(ethylsulphonyl)pyridin-2-yl]-3-methyl-6-(trifluoromethyl)-3H-imidazo[4,5-c]pyridine]",,,,"pest or weed control at 500 g/ha (Phaedon cochleariae; [2]): 100%; chromatographic logP [1, 6]: 2.03; chromatographic logP [1, 7]: 2.02; chromatographic logP [1, 8]: 2.02; pest or weed control at 500 g/ha (Myzus persicae; [9]): 90%"
,CCS(=O)(=O)c1ccc(NC)nc1-c1nc2cc(C(F)(F)F)ncc2n1C [Example 38],100,,90,"logP-acidic [1, 4]: 2.05; logP-neutral [1, 5]: 2.03"
,"CCS(=O)(=O)c1ccc(/S(C)=N/C#N)nc1-c1nc2cc(C(F)(F)F)ncc2n1C (centres unmarked) [Example 43, [{5-(Ethylsulphonyl)-6-[3-methyl-6-(trifluoromethyl)-3H-imidazo[4,5-c]pyridin-2-yl]pyridin-2-yl}(methyl)-lambda4-sulphanylidene]cyanamide]",,,,"pest or weed control at 500 g/ha (Phaedon cochleariae; [2]): 100%; chromatographic logP [1, 6]: 1.75; chromatographic logP [1, 7]: 1.75; chromatographic logP [1, 8]: 1.75; pest or weed control at 500 g/ha (Myzus persicae; [9]): 90%"
,CCS(=O)(=O)c1ccc([S+](C)[O-])nc1-c1nc2cc(C(F)(F)F)ncc2n1C (centres unmarked) [Example 44],,,90,
,CCS(=O)(=O)c1ccc(NN)nc1-c1nc2cc(C(F)(F)F)ncc2n1C [Example 55],100,,100,"logP-acidic [1, 4]: 1.39"
1.81,CCS(=O)(=O)c1ccc(NC(=O)C(C)C[S+](C)[O-])nc1-c1nc2cc(C(F)(F)F)ncc2n1C (centres unmarked) [Example 57],100,,90,
2.37,CCS(=O)(=O)c1ccc(NS(=O)(=O)C(F)(F)F)nc1-c1nc2cc(C(F)(F)F)ncc2n1C [Example 58],,1.20,,efficacy in % (Tetranychus urticae; 500 g/ha): 90%
2.08,CCS(=O)(=O)Nc1ccc(S(=O)(=O)CC)c(-c2nc3cc(C(F)(F)F)ncc3n2C)n1 [Example 59],,0.90,,efficacy in % (Myzus persicae; [11]): 100%
,"CCS(=O)(=O)c1ccc(N(C)NC)nc1-c1nc2cc(C(F)(F)F)ncc2n1C [Example 60, 1-[5-Ethylsulphonyl-6-[3-methyl-6-(trifluoromethyl)imidazo[4,5-c]pyridin-2-yl]-2-pyridyl]-1,2-dimethylhydrazine]",,,,"pest or weed control at 500 g/ha (Phaedon cochleariae; [2]): 100%; efficacy in % (Tetranychus urticae; 100 g/ha): 90%; chromatographic logP ([1]; pH 2.7): 2.37; chromatographic logP ([1]; pH 7.8): 2.39; pest or weed control at 100 g/ha (Myzus persicae; Myzus persicae, foliar, 144 h, 100 g/ha, after 6 days, aphids killed, read-out: efficacy in %): 90%"
2.02,CCS(=O)(=O)c1ccc(NC(=O)C(C)CS(C)(=O)=O)nc1-c1nc2cc(C(F)(F)F)ncc2n1C (centres unmarked) [Example 61],100,,100,
,"CCS(=O)(=O)c1ccc(NC(C)=S)nc1-c1nc2cc(C(F)(F)F)ncc2n1C [Example 63, N-[5-Ethylsulphonyl-6-[3-methyl-6-(trifluoromethyl)imidazo[4,5-c]pyridin-2-yl]-2-pyridyl]thioacetamide]",,,,"pest or weed control at 500 g/ha (Phaedon cochleariae): 100%; chromatographic logP ([1]; pH 2.7): 2.6; chromatographic logP ([1]; pH 7.8): 2.41; pest or weed control at 500 g/ha (Myzus persicae; Myzus persicae, foliar, 144 h, read-out: efficacy in %): 90%"
2.60,CCS(=O)(=O)c1ccc(NC(=O)c2cscn2)nc1-c1nc2cc(C(F)(F)F)ncc2n1C [Example 66],100,2.58,,efficacy in % (Myzus persicae; [11]): 90%
,CCS(=O)(=O)c1ccc(N(C)C(C)=O)nc1-c1nc2cc(C(F)(F)F)ncc2n1C [Example 69],100,,90,"logP-acidic [1, 4]: 2.11; logP-neutral [1, 5]: 2.10"
1.63,CCS(=O)(=O)c1ccc(NC(=O)C[S+](C)[O-])nc1-c1nc2cc(C(F)(F)F)ncc2n1C (centres unmarked) [Example 70],100,1.68,100,
1.87,CCS(=O)(=O)c1ccc(NC(=O)CS(C)(=O)=O)nc1-c1nc2cc(C(F)(F)F)ncc2n1C [Example 72],100,1.92,100,
3.37,CCS(=O)(=O)c1ccc(NC(=O)c2ccc(Cl)cc2)nc1-c1nc2cc(C(F)(F)F)ncc2n1C [Example 73],,3.37,,efficacy in % (Phaedon cochleariae; [10]): 100%

Structure (SMILES),logP-acidic ([1]; pH 2.7),efficacy in % (Phaedon cochleariae; [2]) [%],logP-neutral ([1]; pH 7.8),efficacy in % (Myzus persicae; [3]) [%],also measured
CCC(=O)Nc1ccc([S+]([O-])CC)c(-c2nc3cc(C(F)(F)F)ncc3n2C)n1 (centres unmarked) [Example 2],2.33,100,2.25,90,
CCS(=O)(=O)c1ccc(NC(=O)CC2CC2)nc1-c1nc2cc(C(F)(F)F)ncc2n1C [Example 7],2.71,100,2.66,90,
CC[S+]([O-])c1ccc(NC(C)=O)nc1-c1nc2cc(C(F)(F)F)ncc2n1C (centres unmarked) [Example 9],2.02,83,1.97,90,
CCC(=O)Nc1ccc(S(=O)(=O)CC)c(-c2nc3cc(C(F)(F)F)ncc3n2C)n1 [Example 13],2.33,100,2.28,90,
CCS(=O)(=O)c1ccc(NC(=O)C(F)F)nc1-c1nc2cc(C(F)(F)F)ncc2n1C [Example 24],2.34,100,2.22,100,efficacy in % (Tetranychus urticae; 500 g/ha): 90%
CCS(=O)(=O)c1ccc(C(=O)NC2CC2)nc1-c1nc2cc(C(F)(F)F)ncc2n1C [Example 33],2.34,,2.27,,efficacy in % (Phaedon cochleariae; [10]): 83%; efficacy in % (Tetranychus urticae; 500 g/ha): 90%
CCS(=O)(=O)c1ccc(C(=S)NC2CC2)nc1-c1nc2cc(C(F)(F)F)ncc2n1C [Example 36],3.17,100,3.14,90,
CCOCC(=O)Nc1ccc(S(=O)(=O)CC)c(-c2nc3cc(C(F)(F)F)ncc3n2C)n1 [Example 52],2.64,100,2.51,100,
CCS(=O)(=O)c1ccc(NC(=O)CSC)nc1-c1nc2cc(C(F)(F)F)ncc2n1C [Example 53],2.51,100,2.38,90,
